From patent US4228292A, “N-Substituted benzothiazolines and benzoxazolines and their use as herbicides and plant growth regulants” (Monsanto Company, priority 1978, dated 1980)

Columns and labels:
Wild Buckwheat [1] = assay: post-emergent herbicidal test; assay type: in vivo; conditions: Q; further: ranges in brackets are in %
Protocol: (§1) The post-emergent tests were conducted as follows:
(§2) The herbicidal active ingredients are applied in spray form to two or three-week old specimens of various plant species. The spray, a solution or wettable powder suspension containing the appropriate rate of herbicidal active ingredient to give the desired test rate and a surfactant, is applied to the plants. The treated plants are placed in a greenhouse and approximately two or four weeks later the effects are observed and recorded. The results are shown in Tables IX and X in which the post-emergent herbicidal rating code is as follows: […]

Sugar Beet [2] = assay: post-emergent herbicidal test; assay type: in vivo; conditions: M; further: ranges in brackets are in %
Protocol: as §1, §2

Soybean [3] = assay: post-emergent herbicidal test; assay type: in vivo; conditions: L; further: ranges in brackets are in %
Protocol: as §1, §2

Panicum Spp [4] = assay: post-emergent herbicidal test; assay type: in vivo; conditions: S; further: ranges in brackets are in %
Protocol: as §1, §2

Sorghum [5] = assay: post-emergent herbicidal test; assay type: in vivo; conditions: P; further: ranges in brackets are in %
Protocol: as §1, §2

Crabgrass [6] = assay: post-emergent herbicidal test; assay type: in vivo; conditions: T; further: ranges in brackets are in %
Protocol: as §1, §2

Hemp Sesbania [7] = assay: post-emergent herbicidal test; assay type: in vivo; conditions: R; further: ranges in brackets are in %
Protocol: as §1, §2

Rice [8] = assay: post-emergent herbicidal test; assay type: in vivo; conditions: O; further: ranges in brackets are in %
Protocol: as §1, §2

Wheat [9] = assay: post-emergent herbicidal test; assay type: in vivo; conditions: N; further: ranges in brackets are in %
Protocol: as §1, §2

Wild Buckwheat [10] = assay: pre-emergent herbicidal test; assay type: in vivo; conditions: Q, 4 WAT; further: ranges in brackets are in %
Protocol: (§3) The pre-emergent test was conducted as follows:
(§4) A good grade of top soil was placed in aluminum pans and compactd to a depth of 0.95 to 1.27 cm. from the top of the pan. On the top of the soil was placed a predetermined number of seeds or vegetative propagules of various plant species. The soil required to level fill the pans after seeding or adding vegetative propagules was weighed into a pan. A known amount of the herbicidal active ingredient applied in a solvent or as a wettable powder and the soil were thoroughly mixed, and used as a cover layer for prepared pans. After treatment the pans were moved into a greenhouse bench where they were watered from below as needed to give adequate moisture for germination and growth.
(§5) A herbicidal rating code was used to signify the extent of phytotoxicity of each species. The ratings are defined as follows: […]

Sugar Beet [11] = assay: pre-emergent herbicidal test; assay type: in vivo; conditions: M, 4 WAT; further: ranges in brackets are in %
Protocol: as §3, §4, §5

Soybean [12] = assay: pre-emergent herbicidal test; assay type: in vivo; conditions: L, 4 WAT; further: ranges in brackets are in %
Protocol: as §3, §4, §5

Panicum Spp [13] = assay: pre-emergent herbicidal test; assay type: in vivo; conditions: S, 4 WAT; further: ranges in brackets are in %
Protocol: as §3, §4, §5

Sorghum [14] = assay: pre-emergent herbicidal test; assay type: in vivo; conditions: P, 4 WAT; further: ranges in brackets are in %
Protocol: as §3, §4, §5

Crabgrass [15] = assay: pre-emergent herbicidal test; assay type: in vivo; conditions: T, 4 WAT; further: ranges in brackets are in %
Protocol: as §3, §4, §5

Hemp Sesbania [16] = assay: pre-emergent herbicidal test; assay type: in vivo; conditions: R, 4 WAT; further: ranges in brackets are in %
Protocol: as §3, §4, §5

Rice [17] = assay: pre-emergent herbicidal test; assay type: in vivo; conditions: O, 4 WAT; further: ranges in brackets are in %
Protocol: as §3, §4, §5

Wheat [18] = assay: pre-emergent herbicidal test; assay type: in vivo; conditions: N, 4 WAT; further: ranges in brackets are in %
Protocol: as §3, §4, §5

soybean plants = assay: plant growth regulating activity on soybean plants; assay type: in vivo, variety Williams
Protocol: A number of soybean plants, variety Williams, were grown from seeds in plastic pots in the greenhouse for a period of one week at which time the plants are thinned to one plant per pot. When the second trifoliate leaf (three weeks) was fully expanded, the plants were treated with a solution of the active ingredient in acetone and water. Aqueous Tween 20 was used as a surfactant.
When the fifth trifoliate leaf (four to five weeks) was fully expanded, the treated plants were compared with the non-treated control plants and the observations recorded.

CCOC(=N)Cn1c(=O)sc2ccccc21 [Compound 12]
post-emergent herbicidal rating (Wild Buckwheat [1]; 0.28 kg/h, 4 WAT): 1 (25-49)
post-emergent herbicidal rating (Wild Buckwheat [1]; 1.12 kg/h, 4 WAT): 2 (50-74)
post-emergent herbicidal rating (Wild Buckwheat [1]; 5.6 kg/h, 4 WAT): 3 (75-99)
post-emergent herbicidal rating (Sugar Beet [2]; 0.28 kg/h, 4 WAT): 1 (25-49)
post-emergent herbicidal rating (Sugar Beet [2]; 1.12 kg/h, 4 WAT): 2 (50-74)
post-emergent herbicidal rating (Sugar Beet [2]; 5.6 kg/h, 4 WAT): 3 (75-99)
post-emergent herbicidal rating (Soybean [3]; 0.28 kg/h, 4 WAT): 1 (25-49)
post-emergent herbicidal rating (Soybean [3]; 1.12 kg/h, 4 WAT): 1 (25-49)
post-emergent herbicidal rating (Soybean [3]; 5.6 kg/h, 4 WAT): 2 (50-74)
post-emergent herbicidal rating (Panicum Spp [4]; 0.28 kg/h, 4 WAT): 0 (0-24)
post-emergent herbicidal rating (Panicum Spp [4]; 1.12 kg/h, 4 WAT): 0 (0-24)
post-emergent herbicidal rating (Panicum Spp [4]; 5.6 kg/h, 4 WAT): 0 (0-24)
post-emergent herbicidal rating (Sorghum [5]; 0.28 kg/h, 4 WAT): 0 (0-24)
post-emergent herbicidal rating (Sorghum [5]; 1.12 kg/h, 4 WAT): 0 (0-24)
post-emergent herbicidal rating (Sorghum [5]; 5.6 kg/h, 4 WAT): 0 (0-24)
post-emergent herbicidal rating (Crabgrass [6]; 0.28 kg/h, 4 WAT): 0 (0-24)
post-emergent herbicidal rating (Crabgrass [6]; 1.12 kg/h, 4 WAT): 0 (0-24)
post-emergent herbicidal rating (Crabgrass [6]; 5.6 kg/h, 4 WAT): 0 (0-24)
post-emergent herbicidal rating (Hemp Sesbania [7]; 0.28 kg/h, 4 WAT): 1 (25-49)
post-emergent herbicidal rating (Hemp Sesbania [7]; 1.12 kg/h, 4 WAT): 2 (50-74)
post-emergent herbicidal rating (Hemp Sesbania [7]; 5.6 kg/h, 4 WAT): 3 (75-99)
post-emergent herbicidal rating (Rice [8]; 0.28 kg/h, 4 WAT): 0 (0-24)
post-emergent herbicidal rating (Rice [8]; 1.12 kg/h, 4 WAT): 0 (0-24)
post-emergent herbicidal rating (Rice [8]; 5.6 kg/h, 4 WAT): 0 (0-24)
post-emergent herbicidal rating (Wheat [9]; 0.28 kg/h, 4 WAT): 0 (0-24)
post-emergent herbicidal rating (Wheat [9]; 1.12 kg/h, 4 WAT): 0 (0-24)
post-emergent herbicidal rating (Wheat [9]; 5.6 kg/h, 4 WAT): 1 (25-49)
pre-emergent herbicidal rating (Wild Buckwheat [10]; 1.12 kg/h): 1 (25-49)
pre-emergent herbicidal rating (Wild Buckwheat [10]; 5.6 kg/h): 1 (25-49)
pre-emergent herbicidal rating (Sugar Beet [11]; 1.12 kg/h): 3 (75-100)
pre-emergent herbicidal rating (Sugar Beet [11]; 5.6 kg/h): 3 (75-100)
pre-emergent herbicidal rating (Soybean [12]; 1.12 kg/h): 1 (25-49)
pre-emergent herbicidal rating (Soybean [12]; 5.6 kg/h): 2 (50-74)
pre-emergent herbicidal rating (Panicum Spp [13]; 1.12 kg/h): 0 (0-24)
pre-emergent herbicidal rating (Panicum Spp [13]; 5.6 kg/h): 0 (0-24)
pre-emergent herbicidal rating (Sorghum [14]; 1.12 kg/h): 0 (0-24)
pre-emergent herbicidal rating (Sorghum [14]; 5.6 kg/h): 0 (0-24)
pre-emergent herbicidal rating (Crabgrass [15]; 1.12 kg/h): 0 (0-24)
pre-emergent herbicidal rating (Crabgrass [15]; 5.6 kg/h): 0 (0-24)
pre-emergent herbicidal rating (Hemp Sesbania [16]; 1.12 kg/h): 1 (25-49)
pre-emergent herbicidal rating (Hemp Sesbania [16]; 5.6 kg/h): 2 (50-74)
pre-emergent herbicidal rating (Rice [17]; 1.12 kg/h): 0 (0-24)
pre-emergent herbicidal rating (Rice [17]; 5.6 kg/h): 0 (0-24)
pre-emergent herbicidal rating (Wheat [18]; 1.12 kg/h): 0 (0-24)
pre-emergent herbicidal rating (Wheat [18]; 5.6 kg/h): 1 (25-49)

COC(=N)CCCn1c(=O)sc2ccccc21 [Compound 18]
plant growth regulant observations (soybean plants; 0.112 kg/h): No response.
plant growth regulant observations (soybean plants; 0.56 kg/h): No response.

COC(=N)Cn1c(=O)sc2cc(Br)ccc21 [Compound 20]
plant growth regulant observations (soybean plants; 0.112 kg/h): Leaf alteration of new growth.

COC(=N)Cn1c(=O)oc2ccccc21 [Compound 22]
plant growth regulant observations (soybean plants; 0.56 kg/h): Leaf alteration of new growth.

COC(=N)Cn1c(=O)sc2ccccc21 [Compound 24]
post-emergent herbicidal rating (Wild Buckwheat [1]; 0.056 kg/h, 2 WAT): 1 (25-49)
post-emergent herbicidal rating (Wild Buckwheat [1]; 0.28 kg/h, 4 WAT): 1 (25-49)
post-emergent herbicidal rating (Wild Buckwheat [1]; 1.12 kg/h, 4 WAT): 4 (100)
post-emergent herbicidal rating (Wild Buckwheat [1]; 5.6 kg/h, 4 WAT): 4 (100)
post-emergent herbicidal rating (Sugar Beet [2]; 0.056 kg/h, 2 WAT): 1 (25-49)
post-emergent herbicidal rating (Sugar Beet [2]; 0.28 kg/h, 4 WAT): 1 (25-49)
post-emergent herbicidal rating (Sugar Beet [2]; 1.12 kg/h, 4 WAT): 2 (50-74)
post-emergent herbicidal rating (Sugar Beet [2]; 5.6 kg/h, 4 WAT): 3 (75-99)
post-emergent herbicidal rating (Soybean [3]; 0.056 kg/h, 2 WAT): 1 (25-49)
post-emergent herbicidal rating (Soybean [3]; 0.28 kg/h, 4 WAT): 1 (25-49)
post-emergent herbicidal rating (Soybean [3]; 1.12 kg/h, 4 WAT): 2 (50-74)
post-emergent herbicidal rating (Soybean [3]; 5.6 kg/h, 4 WAT): 2 (50-74)
post-emergent herbicidal rating (Panicum Spp [4]; 0.056 kg/h, 2 WAT): 0 (0-24)
post-emergent herbicidal rating (Panicum Spp [4]; 0.28 kg/h, 4 WAT): 0 (0-24)
post-emergent herbicidal rating (Panicum Spp [4]; 1.12 kg/h, 4 WAT): 0 (0-24)
post-emergent herbicidal rating (Panicum Spp [4]; 5.6 kg/h, 4 WAT): 0 (0-24)
post-emergent herbicidal rating (Sorghum [5]; 0.056 kg/h, 2 WAT): 0 (0-24)
post-emergent herbicidal rating (Sorghum [5]; 0.28 kg/h, 4 WAT): 0 (0-24)
post-emergent herbicidal rating (Sorghum [5]; 1.12 kg/h, 4 WAT): 1 (25-49)
post-emergent herbicidal rating (Sorghum [5]; 5.6 kg/h, 4 WAT): 1 (25-49)
post-emergent herbicidal rating (Crabgrass [6]; 0.056 kg/h, 2 WAT): 0 (0-24)
post-emergent herbicidal rating (Crabgrass [6]; 0.28 kg/h, 4 WAT): 0 (0-24)
post-emergent herbicidal rating (Crabgrass [6]; 1.12 kg/h, 4 WAT): 0 (0-24)
post-emergent herbicidal rating (Crabgrass [6]; 5.6 kg/h, 4 WAT): 0 (0-24)
post-emergent herbicidal rating (Hemp Sesbania [7]; 0.056 kg/h, 2 WAT): 0 (0-24)
post-emergent herbicidal rating (Hemp Sesbania [7]; 0.28 kg/h, 4 WAT): 1 (25-49)
post-emergent herbicidal rating (Hemp Sesbania [7]; 1.12 kg/h, 4 WAT): 2 (50-74)
post-emergent herbicidal rating (Hemp Sesbania [7]; 5.6 kg/h, 4 WAT): 4 (100)
post-emergent herbicidal rating (Rice [8]; 0.056 kg/h, 2 WAT): 0 (0-24)
post-emergent herbicidal rating (Rice [8]; 0.28 kg/h, 4 WAT): 0 (0-24)
post-emergent herbicidal rating (Rice [8]; 1.12 kg/h, 4 WAT): 1 (25-49)
post-emergent herbicidal rating (Rice [8]; 5.6 kg/h, 4 WAT): 0 (0-24)
post-emergent herbicidal rating (Wheat [9]; 0.056 kg/h, 2 WAT): 0 (0-24)
post-emergent herbicidal rating (Wheat [9]; 0.28 kg/h, 4 WAT): 0 (0-24)
post-emergent herbicidal rating (Wheat [9]; 1.12 kg/h, 4 WAT): 0 (0-24)
post-emergent herbicidal rating (Wheat [9]; 5.6 kg/h, 4 WAT): 1 (25-49)
pre-emergent herbicidal rating (Wild Buckwheat [10]; 1.12 kg/h): 1 (25-49)
pre-emergent herbicidal rating (Wild Buckwheat [10]; 5.6 kg/h): 3 (75-100)
pre-emergent herbicidal rating (Sugar Beet [11]; 1.12 kg/h): 1 (25-49)
pre-emergent herbicidal rating (Sugar Beet [11]; 5.6 kg/h): 3 (75-100)
pre-emergent herbicidal rating (Soybean [12]; 1.12 kg/h): 2 (50-74)
pre-emergent herbicidal rating (Soybean [12]; 5.6 kg/h): 3 (75-100)
pre-emergent herbicidal rating (Panicum Spp [13]; 1.12 kg/h): 0 (0-24)
pre-emergent herbicidal rating (Panicum Spp [13]; 5.6 kg/h): 0 (0-24)
pre-emergent herbicidal rating (Sorghum [14]; 1.12 kg/h): 0 (0-24)
pre-emergent herbicidal rating (Sorghum [14]; 5.6 kg/h): 0 (0-24)
pre-emergent herbicidal rating (Crabgrass [15]; 1.12 kg/h): 0 (0-24)
pre-emergent herbicidal rating (Crabgrass [15]; 5.6 kg/h): 1 (25-49)
pre-emergent herbicidal rating (Hemp Sesbania [16]; 1.12 kg/h): 1 (25-49)
pre-emergent herbicidal rating (Hemp Sesbania [16]; 5.6 kg/h): 3 (75-100)
pre-emergent herbicidal rating (Rice [17]; 1.12 kg/h): 0 (0-24)
pre-emergent herbicidal rating (Rice [17]; 5.6 kg/h): 1 (25-49)
pre-emergent herbicidal rating (Wheat [18]; 1.12 kg/h): 1 (25-49)
pre-emergent herbicidal rating (Wheat [18]; 5.6 kg/h): 1 (25-49)
